As usually defined, the IC50 is the concentration at which inhibition is half-maximal.

In assay [1] the target is T1, His-GST-TVMV-hRIPK1 (1-324) (Homo sapiens (Human), UniProt Q13546). The assay is described as follows: biochemical.
Description: (§1) A solution was prepared containing 0.2 nM Anti GST-Tb (Cisbio, 61GSTTLB), 90.6 nM probe and 1 nM His-GST-TVMV-hRIPK1 (1-324) in FRET Buffer (20 mM HEPES, 10 mM MgCl2, 0.015% Brij-35, 4 mM DTT, 0.05 mg/mL BSA). Using Formulatrix Tempest, the detection antibody/enzyme/probe solution (2 mL) was dispensed into wells of a 1536 plate (Black Low Binding Polystyrene 1536 Plate (Corning, 3724)) containing 10 nL of compounds of interest at appropriate concentration in DMSO. The plate was incubated at rt for 1 h. FRET was measured using the EnVision plate reader (Excitation: 340 nm, Emission: 520 nm/495 nM). Total signal (0% inhibition) was calculated from wells containing 10 nL DMSO only.
The subject of assay [2] is MLKL phosphorylation in HT29-L23 human colorectal adenocarcinoma cells. The assay is described as follows: MLKL Phosphorylation High-Content Assay. Type of assay: cell-based. As to conditions: 6 h, necroptosis induced with TNFα, SMAC mimetic and Z-VAD, read-out: pMLKL (IC50). In short, it runs like this:
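HT29-L23 cells were induced to necroptosis with TNFα (35 ng/mL), SMAC mimetic (700 nM) and Z-VAD (140 nM) for 6 h at 37 °C. Phospho-MLKL (S358) immunofluorescence was imaged and quantified per cell; maximal inhibition set by Nec-1s (6.25 μM), and IC50/Ymax from 4-parameter logistic fit.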

Assay [3] addresses T1, His-GST-TVMV-hRIPK1 (1-324). The assay is described as follows: RIPK1 HTRF Binding Assay. As to conditions: read-out: RIPK1 HTRF (IC50); FRET probe displacement, 1 h at rt. In general terms: TR-FRET usually uses a lanthanide donor and a delayed reading to cut background.
Description: as §1

Counter-ions that a name gives are not always drawn. Like-named read-outs stand apart in the source and are kept apart here.

T1 sequence (Q13546 1-324): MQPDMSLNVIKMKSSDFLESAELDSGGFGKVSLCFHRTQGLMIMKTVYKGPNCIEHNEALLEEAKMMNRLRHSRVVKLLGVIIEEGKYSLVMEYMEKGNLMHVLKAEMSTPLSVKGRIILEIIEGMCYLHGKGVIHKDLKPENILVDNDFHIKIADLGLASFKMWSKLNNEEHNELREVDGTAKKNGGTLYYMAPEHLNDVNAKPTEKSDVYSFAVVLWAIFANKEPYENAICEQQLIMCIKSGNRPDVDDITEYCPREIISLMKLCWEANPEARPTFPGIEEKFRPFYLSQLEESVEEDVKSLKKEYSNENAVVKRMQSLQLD

With `[2H]C([2H])([2H])N(C1CCC(NC(=O)c2n[nH]c3cc(-c4cnc(OC)c(C(=O)NCc5ccccc5OC(F)(F)F)c4)ccc23)CC1)C([2H])([2H])[2H]` (stereo not shown) [Example 188, N-{4-[di(deutero)methylamino]-cyclohexyl}-6-[6-methoxy-5-({[2-(trifluoromethoxy)phenyl]-methyl}carbamoyl)pyridin-3-yl]-1H-indazole-3-carboxamide], the values for the IC50 in assay [1] and in assay [2] (Homo sapiens) were 23 nM and 130 nM, respectively.
For `CCC(c1ccccc1)n1nnc(-c2cc(-c3ccc4c(C(=O)NC)n[nH]c4c3)cnc2OC)n1` (single isomer, unassigned) [Example 18-2, 6-(6-methoxy-5-(2-(l-phenylpropyl)-2H-tetrazol-5-yl)pyridin-3-yl)-N-methyl-1H-indazole-3-carboxamide], the IC50 in assay [1] turned out to be 100 nM; in assay [2], 310 nM.
On to `[2H]C([2H])([2H])Oc1ncc(-c2ccc3c(C(=O)NC([2H])([2H])C([2H])([2H])[2H])n[nH]c3c2)cc1C(=O)N[C@@H](C)c1cc(C(F)(F)F)ccc1F` [Example 226, N-[(1,1,2,2,2-deutero)ethyl]-6-(5-{[(1S)-1-[2-fluoro-5-(trifluoro-methyl)phenyl]ethyl]carbamoyl}-6-(deutero)methoxypyridin-3-yl)1H-indazole-3-carboxamide], for which the IC50 turned out to be 57 nM in assay [1] and 41 nM in assay [2] (Homo sapiens).
For `[2H]C([2H])([2H])Oc1ncc(-c2ccc3c(C(=O)NC([2H])([2H])C([2H])([2H])[2H])n[nH]c3c2)cc1C(=O)N[C@@H](C)c1cccc(C(F)(F)F)c1` [Example 230, N-[(1,1,2,2,2-deutero)ethyl]-6-[6-(deutero)methoxy-5-{[(1S)-1-[3-(trifluoromethyl)phenyl]ethyl]car-bamoyl}pyridin-3-yl]-1H-indazole-3-carboxamide], in that order: 11 nM and 55 nM.
`CNC(=O)c1n[nH]c2cc(-c3cnc(OC)c(C(=O)NC(C)c4cccc(C(F)(F)F)c4)c3)ccc12` (stereo not shown) [Example 101, 6-[6-methoxy-5-({1-[3-(tri-fluoromethyl)phenyl]ethyl}-carbamoyl)pyridin-3-yl]-N-methyl-1H-indazole-3-carbox-amide]: the IC50 in assay [3] was determined as 4.5 nM; in assay [2], 19 nM.
With `COc1ncc(-c2ccc3c(C(=O)NCC4CC4)n[nH]c3c2)cc1C(=O)NCc1ccccc1OC(F)(F)F` [Example 172, N-(cyclopropylmethyl)-6-[6-methoxy-5-({[2-(trifluoro-methoxy)phenyl]methyl}-carbamoyl)pyridin-3-yl]-1H-indazole-3-carboxamide], the IC50 in assay [3] amounted to 14 nM; in assay [2] (Homo sapiens) it was 28 nM.
For `CNC(=O)c1n[nH]c2cc(-c3cnc(C)c(C(=O)NCc4cc(F)ccc4OC4CCCC4)c3)ccc12` [Example 157, 6-[5-({[2-(cyclopentyloxy)-5-fluoro-phenyl]methyl}carbamoyl)-6-methylpyridin-3-yl]-N-methyl-1H-indazole-3-carboxamide, TFA], in that order: 2.1 nM and 6.8 nM.
For `[2H]C([2H])([2H])Oc1ncc(-c2ccc3c(C(=O)NC)n[nH]c3c2)cc1C(=O)NCC[C@H](O)c1ccc(Cl)cc1` [Example 27, 6-(5-{[(3S)-3-(4-chlorophenyl)-3-hydroxypropyl]carbamoyl}-6-(deutero)methoxypyridin-3-yl)-N-methyl-1H-indazole-3-carbox-amide, TFA], in that order: 2.5 nM and 8 nM.
For `CNC(=O)c1n[nH]c2cc(-c3cnc(OC)c(C(=O)NC4CCCC(OCC(F)(F)F)C4)c3)ccc12` (stereo not shown) [Example 87, 6-(6-methoxy-5-{[3-(2,2,2-trifluoroethoxy)cyclohexyl]-carbamoyl}pyridin-3-yl)-N-methyl-1H-indazole-3-carbox-amide], the IC50 is 3.9 nM in assay [3] and 13 nM in assay [2].
Regarding `CNC(=O)c1n[nH]c2cc(-c3cnc(OC)c(C(=O)NC4CCCC(C(=O)N(C)C5CC5)C4)c3)ccc12` (stereo not shown) [Example 125, 6-[5-({3-[cyclopropyl(methyl)-carbamoyl]cyclohexyl}carbam-oyl)-6-methoxypyridin-3-yl]-N-methyl-1H-indazole-3-carbox-amide], the IC50 worked out at 12 nM in assay [3] and 8.8 nM in assay [2].
For the molecule `CNC(=O)c1n[nH]c2cc(-c3cnc(OC)c(C(=O)NCC4(c5ccc(F)cc5)CC4)c3)ccc12` [Example 71, 6-[5-({[1-(4-fluorophenyl)cyclo-propyl]methyl}carbamoyl)-6-methoxypyridin-3-yl]-N-methyl-1H-indazole-3-carboxamide], the IC50 was found to be 80 nM in assay [3] and 77 nM in assay [2] (Homo sapiens).
For `[2H]C([2H])([2H])Oc1ncc(-c2ccc3c(C(=O)NCC4CC4)n[nH]c3c2)cc1C(=O)NC(C)c1ccccc1OC(F)(F)F` (stereo not shown) [Example 168, N-(cyclopropylmethyl)-6-[6-(deutero)methoxy-5-({1-[2-(tri-fluoromethoxy)phenyl]ethyl}-carbamoyl)pyridin-3-yl]-1H-indazole-3-carboxamide], in that order: 38 nM and 17 nM.
Take `CNC(=O)c1n[nH]c2cc(-c3cnc(OC)c(C(=O)NCc4cc(F)ccc4OC(C)C)c3)ccc12` [Example 130, 6-[5-({[5-fluoro-2-(propan-2-yloxy)phenyl]methyl}carbam-oyl)-6-methoxy-pyridin-3-yl]-N-methyl-1H-indazole-3-carboxamide]: the half-maximal inhibitory concentration (IC50) in assay [3] was 1.9 nM; in assay [2], 3.9 nM.
In the case of `[2H]C([2H])([2H])Oc1ncc(-c2ccc3c(C(=O)NC)n[nH]c3c2)cc1C(=O)NCCC(=O)OC(C)(C)C` [Example 26, tert-butyl 3-{[2-(deutero)methoxy-5-[3-(methylcarbamoyl)-1H-indazol-6-yl]pyridin-3-yl]form-amido}propanoate], the IC50 in assay [3] was 82 nM; in assay [2] (Homo sapiens) it was 90 nM.
In the case of `CNC(=O)c1n[nH]c2cc(-c3cnc(OC)c(C(=O)NCc4ccccc4C#N)c3)ccc12` [Example 84, 6-(5-{[(2-cyanophenyl)methyl]-carbamoyl}-6-methoxypyridin-3-yl)-N-methyl-1H-indazole-3-carboxamide], the IC50 in assay [3] came out at 45 nM; in assay [2] (Homo sapiens) it was 180 nM.
For `COc1ncc(-c2ccc3c(C(=O)NCCO)n[nH]c3c2)cc1C(=O)NCc1ccccc1OC(F)(F)F` [Example 182, N-(2-hydroxyethyl)-6-[6-meth-oxy-5-({[2-(trifluoromethoxy)-phenyl]methyl}carbamoyl)-pyridin-3-yl]-1H-indazole-3-carboxamide], the results for the IC50 in assay [3] and in assay [2] (Homo sapiens) were 12 nM and 83 nM, respectively.
For `CNC(=O)c1n[nH]c2cc(-c3cnc(OC)c(C(=O)NC4CCCC(Oc5ccccc5)C4)c3)ccc12` (stereo not shown) [Example 118, 6-{6-methoxy-5-[(3-phenoxy-cyclohexyl)carbamoyl]pyridin-3-yl}-N-methyl-1H-indazole-3-carboxamide], in that order: 6.2 nM and 2.6 nM.
On to `CNC(=O)c1n[nH]c2cc(-c3cnc(OC)c(C(=O)NCCC(O)c4ccc(Cl)cn4)c3)ccc12` (stereo not shown) [Example 65, 6-(5-{[3-(5-chloropyridin-2-yl)-3-hydroxypropyl]carbamoyl}-6-methoxypyridin-3-yl)-N-methyl-1H-indazole-3-carbox-amide], for which the 50% inhibitory concentration (IC50) in assay [3] was determined as 8.3 nM; in assay [2], 1.6 nM.
For `CCN(C)C(=O)C1CCCC(NC(=O)c2cc(-c3ccc4c(C(=O)NC)n[nH]c4c3)cnc2OC)C1` (stereo not shown) [Example 122, 6-[5-({3-[ethyl(methyl)carbam-oyl]cyclohexyl}carbamoyl)-6-methoxypyridin-3-yl]-N-methyl-1H-indazole-3-carboxamide], in that order: 12 nM and 120 nM.
For `CCNC(=O)c1n[nH]c2cc(-c3cnc(OC)c(C(=O)N[C@H](C)c4cccc(OC(F)(F)F)c4)c3)ccc12` [Example 232, N-[(1,1,2,2,2-deutero)ethyl]-6-[6-(deutero)methoxy-5-{[(1R)-1-[3-(trifluoromethoxy)phenyl](2,2,2-deutero)ethyl]carbamoyl}pyridin-3-yl]-1H-indazole-3-carboxamide], in that order: 33 nM and 26 nM.
Regarding `COc1ncc(-c2ccc3c(C(=O)NC4CCC(O)CC4)n[nH]c3c2)cc1C(=O)NCc1ccccc1OC(F)(F)F` (stereo not shown) [Example 189, 6-[6-methoxy-5-({[2-(trifluoro-methoxy)phenyl]methyl}-carbamoyl)pyridin-3-yl]-N-[(1r,4r)-4-hydroxycyclohexyl]-1H-indazole-3-carboxamide], the IC50 turned out to be 9.6 nM in assay [3] and 30 nM in assay [2] (Homo sapiens).
For `CNC(=O)c1n[nH]c2cc(-c3cc(C(=O)NCC4CCCC4(C)C)c(OC)nc3C)ccc12` (stereo not shown) [Example 159, 6-(5-{[(2,2-dimethylcyclo-pentyl)methyl]carbamoyl}-6-methoxy-2-methyl-pyridin-3-yl)-N-methyl-1H-indazole-3-carboxamide], in that order: 34 nM and 110 nM.
For `[2H]C([2H])([2H])Oc1ncc(-c2ccc3c(C(=O)NC4CC4)n[nH]c3c2)cc1C(=O)N[C@@H](C)c1cc(C(F)(F)F)ccc1F` [Example 194, N-cyclopropyl-6-(5-{[(1S)-1-[2-fluoro-5-(trifluoromethyl)phenyl]-ethyl]carbamoyl}-6-(deutero)meth-oxypyridin-3-yl)-1H-indazole-3-carboxamide], in that order: 67 nM and 52 nM.
